According to patent US20090176711A1, “INHIBITORS OF AMYLOID PRECURSOR PROTEIN PROCESSING” (priority 2008, published 2009):
“Also recorded” adds a separate entry of the source. No end group written: not given here.

Assays:
[1] = tested on: γ-secretase (membrane fractions of N2a cells); assay: γ-Secretase activity assay on membrane fractions of N2a cells; format: biochemical, mouse; conditions: 200 μM peptide, 12.5 μM fluorogenic substrate, 1 hour preincubation
Description: Since γ-secretase is composed of four components, cloning of γ-secretase gene is impossible. Therefore, cell extracts were used as γ-secretase source. To obtain the cell extracts, after cell lysis with extraction buffer, the lysate was centrifuged at 10,000×g for 1 minute. Afterward, 2× reaction buffer and fluorogenic substrate was mixed and added to the cell lysate. Then, this mixture was incubated at 37° C. and γ-secretase activity was detected at excitation 335 to 355 nm and emission 495 to 510 nm.
γ-Secretase activity assay was performed on membrane fractions of N2a cells in the presence of several complementary peptides. After 12.5 μM fluorogenic substrate and 200 μM each of the complementary peptides were preincubated for 1 hour, γ-secretase was added to the mixture. In the course of time, the fluorogenic substrate was cleaved by the γ-secretase.

[2] = tested on: γ-secretase cleavage in KEK293 APP cells; assay: Cell based γ-secretase assay (α-CTF Western); design: species or system human; conditions: cells treated for 9 hours
Description: In order to test these peptides in the cell for their inhibitory effect on γ-secretase cleavage, a cell based assay was developed. After KEK293 APP cells were cultured in 6 well culture plates with 90% confluency, the cells were treated for 9 hours with N-[N-(3,5-difluorophenacetyl)-L-alanyl]-(S)-phenylglycine t-butyl ester (DAPT) (Dovey H F et al, J. Neurochemistry 2001;76:173-181), which is a known γ-secretase inhibitor, and complementary peptides. The cells in each well were lysed and these lysates were separated with 15% tris-tricine gel. Western analysis was performed with R1 antibody as primary antibody and goat anti-rabbit-HRP as secondary antibody.

[3] = tested on: APP processing in HEK293-APP cells; assay: APP inhibitor activity on HEK293-APP cells (βCTF Western blot); format: cell-based, human; conditions: γ-secretase inhibitor and cholesterol added
Description: In the neuronal cells of the brain, APP is processed by α-secretase or β-secretase. To investigate the effects of the inhibitors on the cell, a cell based assay system was developed as described in FIG. 10. C-terminal fragment of APP remaining on the cell membrane was detected by Western blot. The resulting C-terminal fragments, αCTF or βCTF are further processed by γ-secretase. However, if the cells are treated with the γ-secretase inhibitor, this processing is blocked. As a result, αCTF or βCTF accumulate in the cell. If β-secretase inhibitor or APP inhibitor is added, this processing is blocked and βCTF disappears.
In addition, γ-secretase inhibitor and cholesterol were added to the cells to increase βCTF level. Commercially available peptide-based β-secretase inhibitor was included as control (Lane 6, FIG. 11). To detect the N-terminal fragment of β-amyloid which is a product of APP processing, 6E10 antibody was employed. […] Recently, it has been reported that the commercially available peptide-based inhibitor had to be linked to an oligoarginine transporter peptide to have inhibitory activity against cells. Therefore, mimetic approach is adopted to produce cell permeable analogs. (Chang et al. J. Neurochemistry 2004; 89:1409-1416).
After confirming the ability of the oligo-arginine coupled APP inhibitors to enter the cells, the inhibitors were applied to HEK293-APP cells overexpressing APP to test their inhibitory activities on APP processing. […] This inhibitor started to show significant inhibitory activity beginning from 0.1 μM (lower panel).

[4] = target: T1, Substrate W (Sub W, SEVKMDAEFR; β-secretase cleavage site of wild type APP) (Homo sapiens, UniProt P05067); assay: Binding of biotin-labeled Substrate W to immobilized complementary (HC) peptides
T1 construct: […]; purchased Peptron, Inc; host or cells: chemical synthesis
Description: (§1) Complementary peptides (0.2, 2, 20, and 200 μM) were dissolved in phosphate buffered saline (PBS) (pH 7.4) and fixed to microtiter wells for 5 hr at 37° C. The wells were blocked with blocking buffer (3% BSA/PBS) for 1 hr at 37° C. Either N-terminally biotinylated Substrate W or M (20 μM) in blocking buffer was added and incubated for overnight at 4° C. Streptavidin-horseradish peroxidase in blocking buffer was added to detect resulting bound substrates. The plate was incubated for 2 hr at room temperature (RT), followed by addition of 3,3′,5,5′-tetramethyl-benzidine (TMB) as substrate for horseradish peroxidase for color reaction.
In particular, for Substrate W, complementary peptides (200 μM) dissolved in phosphate buffered saline (PBS) (pH 7.4) were chemically coupled to Reacti-Bind Maleic Anhydride Activated Polystyrene wells (Pierce Biotechnology, Inc.) for overnight at room temperature (RT). Remaining active sites of the plate were inactivated by adding ethanolamine (1 M) for 1 hr at RT. The wells were blocked with blocking buffer (3% BSA/PBS) for 1 hr at RT. N-terminally biotinylated Substrate W (20 μM) in blocking buffer was added and incubated for 3 hr at RT. Streptavidin-horseradish peroxidase in blocking buffer was added to detect resulting bound substrates. The plate was incubated for 2 hr at room temperature (RT), followed by addition of 3,3′,5,5′-tetramethyl-benzidine (TMB) as substrate for horseradish peroxidase for color reaction.
(§2) Reacti-Bind™ maleic anhydride-activated polystyrene plate (Pierce, IL, USA) was coated with 50 μl of HC peptide (200 μM in distilled water) by chemical coupling for 3 h at room temperature (RT) and washed three times with phosphate buffered saline (PBS) containing 0.05% tween 20 (PBST). The plate was blocked with blocking buffer (0.5% gelatin in PBS) for 1 h at RT. After discarding blocking buffer, biotinylated BACE1 substrates (200 μM) in blocking buffer was applied on the plate and incubated for 2.5 h at RT. Each well was washed three times with PBST. The bound biotinylated BACE1 substrates were detected by incubation with streptavidin-horseradish peroxidase (Str-HRP, 125 mU/ml in blocking buffer) for 2 h at RT. Color reaction was carried out with 50 μl of 3,3′,5,5′-Tetramethylbenzidine Liquid Substrate (Sigma-Aldrich, MO, USA). After stopping the reaction by addition of an equal volume of 1 N HCl, absorbance at 450 nm was read in an automated ELISA reader (EL 312e, Bio-Tek Instruments, VT, USA). All assays were carried out in duplicate.

[5] = target: T2, rhBACE1 (Homo sapiens, UniProt P56817); assay: ELISA binding of rhBACE1 to immobilized c-Sub M
T2 construct: purchased R&D Systems, Inc
From the text: In one embodiment of the present invention, four HC decapeptides targeted to either wild type APP or APPsw may be designed. […] Therefore, there is possibility that c-Sub M or any compounds derived from c-Sub M may inhibit production of Aβ from wild type APP in cells.

[6] = tested on: cleavage of Substrate M by β-secretase; assay: Inhibition of cleavage of Substrate M by β-secretase by complementary and deletion peptides (Examples 1, 5, 6; assay format not stated); format: biochemical; conditions: for concentration dependent inhibitory activity, activity group: various concentrations, Substrate M (FIG. 8)
Description: So far we have focused on c-Sub M peptide. Serial deletions were made from N-terminus or C-terminus of c-Sub M (FIG. 5), and we investigated effect of the deletions on the cleavage of Substrate M. The optimum peptide/substrate ratio for inhibition on the cleavage of substrate was determined by observing the inhibition percentage at various peptide/substrate ratios (FIG. 4). Subsequently, the inhibitory activity of the deletion peptides were tested at 10 inhibitor/substrate ratio and the concentration of the Substrate M was 50 μM. Deletion of the first two amino acids from the N-terminus had little effect on the activity and deletion of five amino acids from the C-terminus of c-Sub M had little effect on the inhibitory activity (FIG. 6). Further deleted peptides were tested for inhibitory activity on the cleavage of Substrate M (FIG. 7).
The above-mentioned peptides that have inhibitory activity were tested at various concentrations for their inhibitory activities on their mutant substrate Substrate M (FIG. 8).

[7] = tested on: Substrate M (Sub M, SEVNLDAEFR; β-secretase cleavage site of APPsw); assay: Binding of biotin-labeled Substrate M to immobilized complementary (HC) peptides; conditions: for binding activity for Sub M: HC peptides chemically coupled to plate, bio-Sub M
Description: as §1, §2

[8] = tested on: HEK293-APP cells; assay: Transport of peptides into cells (FITC label); format: cell-based, human
From the text: To overcome the problem of APP inhibitor's inability to penetrate across the cell membrane, APP inhibitors were coupled with oligo-arginine (R9 means 9 Arginines), which is known to be a transporter peptide. These coupled peptides were labeled with FITC (Fluorescein isothiocyanate) using a linker AHX (aminohexanoic acid) to investigate whether the inhibitors pass through the cell membrane. FITC-AHX-c-Sub M-R9 and FITC-AHX-c-Sub MΔN1C1-R9 were made.
Oligo-arginine coupled APP inhibitors that were labeled with FITC were added to HEK293-APP cells to see whether the peptides pass through the cell membrane.

[9] = tested on: cleavage of Sub M by rhBACE1; assay: HPLC analysis of the cleavage of Sub M by rhBACE1; format: biochemical, human; conditions: 25-fold amount of inhibitor, 420 nM β-secretase
Description: Substrate M (100 μM) was preincubated with complementary peptides ([…]) in assay buffer (100 μl) overnight at RT. rhBACE (140 nM) in assay buffer was added and incubated for 11 hr at RT. Cleavage products of Substrate M by rhBACE were quantitated after separation by C-18 reversed-phase column chromatography (GRACE VyDAC).
One of the advantages of the APP inhibitor described in the present invention is that it is a peptide or a mimetic that bind to the β-secretase cleavage site of APP, thus not affecting other β-secretase substrates. To confirm the specificity of the inventive APP inhibitor, two different types of substrates were used, APP Sub M and ST6Ga11. Both substrates are cleaved by β-secretase under normal conditions and the effect of the inventive APP inhibitor on the substrate cleavage was monitored by HPLC (See the schematic diagram in FIG. 16.) To carry out these experiments, the concentration of β-secretase required for cleavage of both substrates was determined as shown in FIG. 17. For substantial cleavage of ST6Ga11 substrate, 420 nM of the enzyme was required. Therefore, 420 nM of β-secretase was used for the following experiment.
Reversed-phase HPLC was also used to analyze the products of enzyme action in vitro. […] The cleavage products were identified at 215 nm and quantitated by integrating the area under each peak. […]

T2 sequence (P56817 46-501): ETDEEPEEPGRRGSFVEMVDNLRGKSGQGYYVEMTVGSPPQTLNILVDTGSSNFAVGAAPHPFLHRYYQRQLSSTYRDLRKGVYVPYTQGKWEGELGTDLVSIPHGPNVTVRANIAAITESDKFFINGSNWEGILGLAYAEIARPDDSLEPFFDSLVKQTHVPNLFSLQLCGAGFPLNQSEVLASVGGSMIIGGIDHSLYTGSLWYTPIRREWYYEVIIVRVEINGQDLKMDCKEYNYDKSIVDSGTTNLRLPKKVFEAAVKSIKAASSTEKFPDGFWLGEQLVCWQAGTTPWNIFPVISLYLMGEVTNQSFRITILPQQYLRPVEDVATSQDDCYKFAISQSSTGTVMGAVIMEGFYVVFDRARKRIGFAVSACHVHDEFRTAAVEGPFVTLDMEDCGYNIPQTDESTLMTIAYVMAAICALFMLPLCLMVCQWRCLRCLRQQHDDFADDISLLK

## PQQYRCHRQR [rCh2 (3′→5′)]
[1]
  inhibitory effect on γ-secretase activity: about 80%

## C[C@H](NC(=O)Cc1cc(F)cc(F)c1)C(=O)N[C@H](C(=O)OC(C)(C)C)c1ccccc1 [DAPT, N-[N-(3,5-difluorophenacetyl)-L-alanyl]-(S)-phenylglycine t-butyl ester]
[2]
  inhibition of γ-secretase activity in cells (α-CTF accumulation): inhibits γ-secretase activity very effectively

## SEFCIQIHFR-NH2 [c-Sub M, SEFCIQIHFR]
[3]
  inhibitory activity on APP processing (βCTF): does not inhibit the processing of APP in cells; also recorded: none of the inhibitors tested showed inhibitory activity
[4]; HC peptides chemically coupled, bio-Sub W
  binding to Sub W relative to c-Sub W: 4 fold
[4]; complementary peptide immobilized, biotin-labeled Substrate W
  binding to Substrate W: binds the wild type substrate Sub W efficiently
[5]
  binding to rhBACE1: does not bind to rhBACE1
[6]; FIG. 4
  inhibition of cleavage of Substrate M by β-secretase: inhibit cleavage
[6]
  concentration dependent inhibitory activity, activity group: less activity
[7]
  binding activity for Sub M: highest binding
[7]; listed as c-Sub
  binding activity for Sub M: bound
[7]; complementary peptide immobilized, biotin-labeled Substrate M
  binding to Substrate M: binds to Sub M appreciably and bind and binds its substrate Sub M
[7]; substrate not specified
  absorbance in binding test: high absorbance
[8]
  transport into the cells: does not enter the cells

## FCIQIHF (also: cyclic, mode of cyclisation not given here) [c-Sub M ΔN2C1]
[9]
  Sub M cleavage blocked: about 60%
[6]
  concentration dependent inhibitory activity, activity group: most active group
